The source of these data is patent US9469645B2, “Compounds and compositions for the treatment of parasitic diseases” (Novartis AG, priority 2009, dated 2016).

A value given as a limit tells only on which side of the number the result lay.

One test relates to W2 strain. The experiment in a line: parasite proliferation assay in infected red blood cells (SYBR Green I), W2 strain. In kind it is cell-based. Particulars: Erythrocyte. From the text:
(§1) Compounds of the invention can be assayed to measure their capacity to inhibit proliferation of parasitemia in infected red blood cells. The proliferation is quantified by the addition of SYBR Green I (INVITROGEN)® dye which has a high affinity for double stranded DNA.
For `NCC(=O)N1CCn2c(nc(-c3ccc(F)cc3)c2Nc2ccc(F)cc2)C1` [Compound 4], the EC50 is 23 nM.
`CC(C)(C)OC(=O)N[C@@H](Cc1ccc(N)cc1)C(=O)N1CCn2c(nc(-c3cccc(F)c3)c2Nc2ccc(F)cc2)C1` [Compound 243] showed an EC50 of 697 nM.
Same read-out and setting: in the case of `NCC(=O)N1CCn2c(nc(-c3ccc(F)cc3)c2NC2CCCC2)C1` [Compound 6] it was 4640 nM; in that of `Cc1ccc(Nc2c(-c3ccc(F)cc3)nc3n2CCN(C(=O)[C@@H](C)N)C3)cc1` [Compound 84], 74 nM; in that of `Cc1ccc(Nc2c(-c3ccc(F)cc3)nc3n2CCN(C(=O)C(O)c2ccccc2)C3)cc1` (stereo not shown) [Compound 82], 7 nM.
Same read-out and setting: next, `CN[C@H](CC(C)C)C(=O)N1CCn2c(nc(-c3ccc(F)cc3)c2Nc2ccc(C)cc2)C1` [Compound 377]: 574 nM; `Cc1ccc(Nc2c(-c3ccc(F)cc3)nc3n2CCN(C(=O)[C@@H](O)Cc2ccccc2)C3)cc1` [Compound 106]: 4 nM.
Still for that read-out and setting: in the case of `Cc1ccc(Nc2c(-c3ccc(F)cc3)nc3n2CCN(C(=O)[C@H](O)C(C)C)C3)cc1` [Compound 205] it was 4 nM.

The test is the same for the next values; noted with them: Plasmodium falciparum, Erythrocyte.
In the case of `Cc1ccc(Nc2c(-c3cccc(F)c3)nc3n2CC(=O)NC3(C)C)cc1F` [Compound 603], the EC50 was found to be 73 nM.
On the same count and under the same terms, next, `CC1(C)c2nc(-c3ccc(F)cc3)cn2CCN1C(=O)C(N)CCc1ccc(Cl)cc1` (stereo not shown) [Compound 702]: 5850 nM.

The subject of a further test is 3D7 P. falciparum strain. Briefly: parasite proliferation assay in infected red blood cells (SYBR Green I). The test is classed as cell-based, Plasmodium falciparum. The note with it: Plasmodium falciparum, 3D7, Erythrocyte, 3D7 strain; read-out: EC50 3D7 strain.
Source text: as §1
The following assay illustrates the invention without in any way limiting the scope of the invention. This parasite proliferation assay measures the increase in parasite DNA content using a DNA intercalating dye, SYBR Green®.
3D7 P. falciparum strain is grown in complete culturing media until parasitemia reaches 3% to 8% with O+ human erythrocytes. 20 μl of screening media is dispensed into 384 well assay plates. […] 10 μl of lysis buffer (saponin, triton-X, EDTA) containing a 10× solution of SYBR Green I® in RPMI media is dispensed into the plates. The plates are lidded and kept at room temperature overnight for the lysis of the infected red blood cells.
Take `NCC(=O)N1CCn2c(nc(-c3ccc(F)cc3)c2Nc2ccc(F)cc2)C1` [Compound 4]: the EC50 came to 20 nM.
Same read-out and setting: next, `CC(C)(C)OC(=O)N[C@@H](Cc1ccc(N)cc1)C(=O)N1CCn2c(nc(-c3cccc(F)c3)c2Nc2ccc(F)cc2)C1` [Compound 243]: 2970 nM; `NC(C(=O)N1CCn2c(nc(-c3ccc(F)cc3)c2Nc2ccc(Cl)c(F)c2)C1)C(F)(F)F` (stereo not shown) [Compound 194]: 50 nM.
Still for that read-out and setting: in the case of `NCC(=O)N1CCn2c(nc(-c3ccc(F)cc3)c2NC2CCCC2)C1` [Compound 6] it was 4380 nM; in that of `Cc1ccc(Nc2c(-c3cccc(F)c3)nc3n2CC(=O)NC3(C)C)cc1F` [Compound 603], 50 nM.
Still for that read-out and setting: in the case of `Cc1ccc(C[C@H](N)C(=O)N2CCn3c(nc(-c4ccc(F)cc4)c3Nc3ccc(Cl)c(F)c3)C2)cc1` [Compound 341] it was 10 nM.
Consider `Cc1ccc(Nc2c(-c3ccc(F)cc3)nc3n2CCN(C(=O)[C@@H](C)N)C3)cc1` [Compound 84], for which the EC50 came out at 50 nM.
On to `CC1(C)c2nc(-c3ccc(F)cc3)cn2CCN1C(=O)C(N)CCc1ccc(Cl)cc1` (stereo not shown) [Compound 702], for which the EC50 amounted to 6030 nM.
The same measure, in the same setting: next, `Cc1ccc(Nc2c(-c3cc(F)ccc3F)nc3n2CCNC3)cc1` [Compound 330]: 4470 nM; `N[C@@H](CC1CC1)C(=O)N1CCn2c(nc(-c3ccc(F)cc3)c2Nc2ccc(F)cc2)C1` [Compound 466]: 30 nM.
Still for that read-out and setting: next, `O=C(Cc1ccc(F)c(C(F)(F)F)c1)N1CCn2c(nc(-c3ccc(F)cc3)c2Nc2ccc(Cl)c(F)c2)C1` [Compound 335]: 2300 nM; `Cc1ccc(Nc2c(-c3ccc(F)cc3)nc3n2CCN(C(=O)[C@H](O)Cc2ccccc2)C3)cc1` [Compound 109]: 40 nM.
Still for that read-out and setting: next, `O=C(COc1ccccc1)N1CCn2c(nc(-c3ccc(F)cc3)c2Nc2ccc(Cl)c(F)c2)C1` [Compound 336]: 40 nM; `Cc1ccc(Nc2c(-c3ccc(F)cc3)nc3n2CCN(C(=O)C2CCCO2)C3)cc1` (stereo not shown) [Compound 200]: 910 nM; `O=C([C@@H]1Cc2ccccc2N1)N1CCn2c(nc(-c3ccc(F)cc3)c2Nc2ccc(Cl)c(F)c2)C1` [Compound 343]: 7500 nM.
As to `O=C([C@@H]1CCCN1)N1CCn2c(nc(-c3ccc(F)cc3)c2Nc2ccc(Cl)c(F)c2)C1` [Compound 338], the EC50 worked out at 190 nM.
Still for that read-out and setting: in the case of `O=C([C@H]1Cc2ccccc2CN1)N1CCn2c(nc(-c3ccc(F)cc3)c2Nc2ccc(Cl)c(F)c2)C1` [Compound 347] it was 5920 nM.
The same measure, in the same setting: in the case of `O=C([C@@H](O)Cc1ccccc1)N1CCn2c(nc(-c3ccc(F)cc3)c2Nc2ccc(Cl)c(F)c2)C1` [Compound 334] it was 50 nM.
Same read-out and setting: next, `Cc1ccc(Nc2c(-c3ccc(F)cc3)nc3n2CCN(C(=O)CC(C)O)C3)cc1` (stereo not shown) [Compound 108]: 960 nM.
With `Cc1ccc(Nc2c(-c3ccc(F)cc3)nc3n2CCN(C(=O)CCO)C3)cc1` [Compound 103], the EC50 was 1020 nM.
Take `CC(C)(N)C(=O)N1CCn2c(nc(-c3cccc(F)c3)c2Nc2ccc(F)c(C#N)c2)C1` [Compound 353]: the EC50 came out at 210 nM.
As for `Cc1ccc(Nc2c(-c3ccc(F)cc3)nc3n2CCN(C(=O)[C@H]2CCC[C@@H]2O)C3)cc1` [Compound 105], the EC50 was 850 nM.
On the same count and under the same terms, next, `CC(C)(N)C(=O)N1CCn2c(nc(-c3ccc(F)cc3)c2Nc2ccc(F)c(Cl)c2)C1` [Compound 492]: 50 nM; `O=C(C(Nc1ccccc1)c1ccccc1)N1CCn2c(nc(-c3ccc(F)cc3)c2Nc2ccc(Cl)c(F)c2)C1` (stereo not shown) [Compound 332]: 1040 nM; `NCC(=O)N1CCn2c(nc(-c3ccc(F)cc3)c2Nc2ccc(F)c(Cl)c2)C1` [Compound 78]: 10 nM.
On the same count and under the same terms, next, `CCOCC(=O)N1CCn2c(nc(-c3ccc(F)cc3)c2Nc2ccc(C)cc2)C1` [Compound 350]: 660 nM; `NC(CC(=O)N1CCn2c(nc(-c3ccc(F)cc3)c2Nc2ccc(Cl)c(F)c2)C1)C(F)(F)F` (stereo not shown) [Compound 339]: 520 nM; `O=C(CN1CCC(C(F)(F)F)CC1)N1CCn2c(nc(-c3ccc(F)cc3)c2Nc2ccc(F)cc2)C1` [Compound 61]: 9240 nM.
On the same count and under the same terms, in the case of `O=C(C1NCc2ccccc21)N1CCn2c(nc(-c3ccc(F)cc3)c2Nc2ccc(Cl)c(F)c2)C1` (stereo not shown) [Compound 342] it was 5240 nM; in that of `CC[C@H](N)C(=O)N1CCn2c(nc(-c3ccc(F)cc3)c2Nc2ccc(Cl)c(F)c2)C1` [Compound 393], 20 nM.
As for `Cc1ccc([S+]([O-])c2c(-c3ccc(F)cc3)nc3n2CCN(C(=O)CN)C3(C)C)cc1` (stereo not shown) [Compound 721, 2-amino-1-(2-(4-fluorophenyl)-8,8-dimethyl-3-(p-tolylsulfinyl)-5,6-dihydroimidazo[1,2-a]pyrazin-7 (8H)-yl)ethanone], the EC50 stood at 42 nM.
Regarding `CC(C)C[C@H](N)C(=O)N1CCn2c(nc(-c3ccc(F)cc3)c2Nc2ccc(Cl)c(F)c2)C1` [Compound 322], the EC50 worked out at 40 nM.
Take `COc1ccc(CSC[C@@H](N)C(=O)N2CCn3c(nc(-c4ccc(F)cc4)c3Nc3ccc(Cl)c(F)c3)C2)cc1` [Compound 346]: the EC50 was more than 8800 nM.
`O=C1CC(C(=O)N2CCn3c(nc(-c4ccc(F)cc4)c3Nc3ccc(Cl)c(F)c3)C2)CCN1` (stereo not shown) [Compound 337]: the EC50 is more than 10000 nM.
Same read-out and setting: next, `O=C(Cc1ccccc1OC(F)(F)F)N1CCn2c(nc(-c3ccc(F)cc3)c2Nc2ccc(Cl)c(F)c2)C1` [Compound 333]: 1110 nM; `Cc1ccc(Nc2c(-c3ccc(F)cc3)nc3n2CCN(C(=O)C(O)c2cc(F)cc(F)c2)C3)cc1` (stereo not shown) [Compound 123]: 30 nM.
Still for that read-out and setting: next, `Cc1ccc(Sc2c(-c3ccc(F)cc3)nc3n2CCN(C(=O)CN)C3(C)C)cc1` [Compound 713, 2-amino-1-(2-(4-fluorophenyl)-8,8-dimethyl-3-(p-tolylthio)-5,6-dihydroimidazo[1,2-a]pyrazin-7(8H)-yl)ethanone]: 8 nM; `N[C@H](CC(=O)N1CCn2c(nc(-c3ccc(F)cc3)c2Nc2ccc(Cl)c(F)c2)C1)Cc1ccc(Br)cc1` [Compound 344]: 210 nM.
On the same count and under the same terms, in the case of `COCCOCC(=O)N1CCn2c(nc(-c3ccc(F)cc3)c2Nc2ccc(C)cc2)C1` [Compound 351] it was 1240 nM; in that of `CN(c1ccc(Cl)c(F)c1)c1c(-c2ccc(F)cc2)nc2n1CCN(C(=O)CN)C2` [Compound 293], 20 nM.
Consider `CCCCC(=O)OC(C(=O)N1CCn2c(nc(-c3ccc(F)cc3)c2Nc2ccc(C)cc2)C1)c1ccccc1` (stereo not shown) [Compound 270], for which the EC50 was found to be 50 nM.
As for `Fc1ccc(-c2nc3n(c2Nc2ccc(F)c(Cl)c2)CCNC3)cc1` [Compound 447], the EC50 came out at 230 nM.
On the same count and under the same terms, next, `Cc1ccc(Nc2c(-c3ccc(F)cc3)nc3n2CC(C)N(C(=O)CN)C3)cc1` (stereo not shown) [Compound 352]: 10 nM.
Still for that read-out and setting: in the case of `Cc1ccc(Nc2c(-c3ccc(F)cc3)nc3n2CCN(C(=O)C(C)(C)C(O)c2ccc(C)cc2)C3)cc1` (stereo not shown) [Compound 119] it was 4740 nM; in that of `Cc1ccc(Nc2c(-c3ccc(F)cc3)nc3n2CCN(C(=O)[C@@H](N)C(C)C)C3)cc1` [Compound 169], 40 nM; in that of `Cc1ccc(Nc2c(-c3ccc(F)cc3)nc3n2CCN(C(=O)C(C)(O)c2ccccc2)C3)cc1` (stereo not shown) [Compound 111], 20 nM.
As to `NC(CC(F)(F)F)C(=O)N1CCn2c(nc(-c3ccc(F)cc3)c2Nc2ccc(Cl)c(F)c2)C1` (stereo not shown) [Compound 348], the EC50 was determined as 50 nM.
The same measure, in the same setting: in the case of `CCCCOCCOCC(=O)N1CCn2c(nc(-c3ccc(F)cc3)c2Nc2ccc(C)cc2)C1` [Compound 349] it was 7480 nM; in that of `Fc1ccc(-c2nc3n(c2Nc2ccc(F)c(F)c2)CCNC3)cc1` [Compound 331, N-(3,4-difluorophenyl)-2-(4-fluorophenyl)-5,6,7,8-tetrahydroimidazo[1,2-a]pyrazin-3-amine], 140 nM; in that of `Cc1ccc(Nc2c(-c3ccc(F)cc3)nc3n2CCN(C(=O)C(O)c2ccc(O)cc2)C3)cc1` (stereo not shown) [Compound 130], 10 nM.
In the case of `O=C([C@H]1CCCN1)N1CCn2c(nc(-c3ccc(F)cc3)c2Nc2ccc(Cl)c(F)c2)C1` [Compound 340], the EC50 turned out to be 200 nM.
Same read-out and setting: in the case of `CO[C@@H](C)C(=O)N1CCn2c(nc(-c3ccc(F)cc3)c2Nc2ccc(C)cc2)C1` [Compound 198] it was 1360 nM; in that of `CC[C@H](C)[C@H](N)C(=O)N1CCn2c(nc(-c3ccc(F)cc3)c2Nc2ccc(Cl)c(F)c2)C1` [Compound 317], 20 nM.

The test is the same for the next values; noted with them: Plasmodium falciparum, 3D7, Erythrocyte, read-out: EC50 3D7 strain.
For `Cc1ccc(Nc2c(-c3ccc(F)cc3)nc3n2CCN(C(=O)C(O)(c2ccccc2)c2ccccc2)C3)cc1` [Compound 112], the EC50 stood at 1430 nM.
